{"source": "patent US20250205506A1", "about": "“Treatment of viral infection” (priority 2023, published 2025)", "origin": "cited, not measured here", "key": {"[1]": {"tested_on": "recurrent herpes labialis", "conditions": "for Reduction of healing time: tablets, otherwise healthy people"}, "herpes infections": {"tested_on": "herpes infections", "conditions": "orally administered; red light from a HeNe laser"}, "herpes zoster": {"tested_on": "herpes zoster", "conditions": "intravenously administered; golden light (565 nm yellow + 630 nm red) or red light to the affected area"}}}
{"compound": "Nc1nc2c(ncn2COCCO)c(=O)[nH]1", "note": "[acyclovir, 9-(2-hydroxyethoxymethyl) guanine]", "values": [{"measurement": "Reduction of healing time", "setting": "[1]", "result": "reduce healing time by about one day"}, {"measurement": "Combined effect with red light compared to acyclovir alone", "setting": "herpes infections", "result": "improvements over acyclovir alone"}, {"measurement": "Combined effect with light compared to acyclovir alone", "setting": "herpes zoster", "result": "improvement over acyclovir alone"}]}
{"compound": "CC(=O)OCC(CCn1cnc2cnc(N)nc21)COC(C)=O", "note": "[famciclovir]", "values": [{"measurement": "Reduction of healing time", "setting": "[1]", "result": "reduce healing time by about one day"}]}
{"compound": "CC(C)[C@H](N)C(=O)OCCOCn1cnc2c(=O)[nH]c(N)nc21", "note": "[valacyclovir]", "values": [{"measurement": "Reduction of healing time", "setting": "[1]", "result": "reduce healing time by about one day"}, {"measurement": "Preventative treatment of herpes", "setting": "[1]; taken once daily", "result": "effective preventative treatment for herpes reducing frequency and severity of outbreaks"}]}
